In ChEMBL document CHEMBL4011656, “Discovery and Optimization of Chromeno[2,3-c]pyrrol-9(2H)-ones as Novel Selective and Orally Bioavailable Phosphodiesterase 5 Inhibitors for the Treatment of Pulmonary Arterial Hypertension” (J Med Chem, 2017):
Activity calls are given as the source filed them. No cut-off for these calls is given here.

Tests used:
[1] = target: High affinity cGMP-specific 3',5'-cyclic phosphodiesterase 9A (Homo sapiens, UniProt O76083); assay: Inhibition of PDE9A2 (181 to 506 residues) (unknown origin) expressed in Escherichia coli BL21(DE3) using [3H]cGMP or [3H]cAMP as substrate after 15 mins by liquid scintillation counting method
[2] = target: cAMP and cAMP-inhibited cGMP 3',5'-cyclic phosphodiesterase 10A (Homo sapiens, UniProt Q9Y233); assay: Inhibition of PDE10A (449 to 770 residues) (unknown origin) expressed in Escherichia coli BL21(DE3) using [3H]cGMP or [3H]cAMP as substrate after 15 mins by liquid scintillation counting method
Mus musculus [3] = assay: Acute toxicity in Kunming mouse assessed as mortality at 1000 to 1500 mg/kg, po administered as single dose measured up to 2 weeks post dose; type: organism-based; conditions: in vivo, 336 h
[4] = target: cGMP-inhibited 3',5'-cyclic phosphodiesterase 3A (Homo sapiens, UniProt Q14432); assay: Inhibition of PDE3A (679 to 1087 residues) (unknown origin) expressed in Escherichia coli BL21(DE3) using [3H]cAMP or [3H]cGMP as substrate after 15 mins by liquid scintillation counting method
Rattus norvegicus [5] = assay: Reduction in MCT-induced increase in right ventricle hypertrophy index in Wistar rat model of monocrotaline pulmonary arterial hypertension at 5 mg/kg, po for 3 weeks; type: functional, organism-based
[6] = Half life in human microsomes at 0.5 uM; type: ADME, microsome; conditions: liver microsomes
[7] = target: cGMP-dependent 3',5'-cyclic phosphodiesterase (Homo sapiens, UniProt O00408); assay: Inhibition of PDE2A (580 to 919 residues) (unknown origin) expressed in Escherichia coli BL21(DE3) using [3H]cGMP or [3H]cAMP as substrate after 15 mins by liquid scintillation counting method
[8] = target: High affinity cAMP-specific and IBMX-insensitive 3',5'-cyclic phosphodiesterase 8A (Homo sapiens, UniProt O60658); assay: Inhibition of PDE8A1 (480 to 820 residues) (unknown origin) using [3H]cGMP or [3H]cAMP as substrate after 15 mins by liquid scintillation counting method
[9] = Half life in Sprague-Dawley rat at […], iv by LC-MS/MS analysis; type: ADME, organism-based; conditions: in vivo
[10] = Apparent clearance in rat liver microsomes at 0.5 uM; type: ADME, microsome; conditions: read-out: CLH(app)
[11] = AUC (0 to infinity) in Sprague-Dawley rat at 5 mg/kg, po by LC-MS/MS analysis; type: ADME, organism-based; parameters: dose 5 mg/kg, time infinity, route oral; conditions: in vivo
[12] = Tmax in Sprague-Dawley rat at 5 mg/kg, po by LC-MS/MS analysis; type: ADME, organism-based; conditions: in vivo
Mus musculus [13] = assay: Acute toxicity in Kunming mouse assessed as effect on body weight at 1000 to 1500 mg/kg, po administered as single dose measured up to 2 weeks post dose; type: organism-based; conditions: in vivo, 336 h
[14] = target: High affinity 3',5'-cyclic-AMP phosphodiesterase 7A (Homo sapiens, UniProt Q13946); assay: Inhibition of PDE7A1 (130 to 482 residues) (unknown origin) expressed in Escherichia coli BL21(DE3) using [3H]cGMP or [3H]cAMP as substrate after 15 mins by liquid scintillation counting method
[15] = MRT (0 to t) in Sprague-Dawley rat at […], iv by LC-MS/MS analysis; type: ADME, organism-based; conditions: in vivo
Liver [16] = assay: Intrinsic clearance in human liver microsomes at 0.5 uM; type: ADME, microsome
[17] = target: Dual specificity calcium/calmodulin-dependent 3',5'-cyclic nucleotide phosphodiesterase 1B (Homo sapiens, UniProt Q01064); assay: Inhibition of PDE1B (10 to 487 residues) (unknown origin) expressed in Escherichia coli BL21(DE3) using [3H]cAMP or [3H]cGMP as substrate after 15 mins by liquid scintillation counting method
[18] = Half life in rat liver microsomes at 0.5 uM; type: ADME, microsome
Mus musculus [19] = assay: Acute toxicity in Kunming mouse assessed as poisoning symptoms at 1000 to 1500 mg/kg, po administered as single dose measured up to 2 weeks post dose; type: organism-based; conditions: in vivo, 336 h
[20] = Apparent clearance in human liver microsomes at 0.5 uM; type: ADME, microsome; conditions: read-out: CLH(app)
Cytochrome P450 2C9 = Cytochrome P450 2C9 (Homo sapiens, UniProt P11712); assay: Inhibition of CYP2C9 in human microsomes in presence of NADPH; type: ADME
Cytochrome P450 2C19 = Cytochrome P450 2C19 (Homo sapiens, UniProt P33261); assay: Inhibition of CYP2C19 in human microsomes in presence of NADPH; type: ADME
[21] = Acute toxicity in Kunming mouse administered as single oral dose measured up to 2 weeks post dose; conditions: in vivo
Liver [22] = assay: Drug metabolism in human liver microsomes assessed as metabolic rate; type: ADME, microsome
[23] = AUC (0 to t) in Sprague-Dawley rat at 5 mg/kg, po by LC-MS/MS analysis; type: ADME, organism-based; conditions: in vivo
[24] = Oral bioavailability in Sprague-Dawley rat at 5 mg/kg by LC-MS/MS analysis; type: ADME, organism-based; conditions: in vivo
[25] = target: Rod cGMP-specific 3',5'-cyclic phosphodiesterase subunit alpha (Homo sapiens, UniProt P16499); assay: Inhibition of PDE6A (484 to 817 residues) (unknown origin) expressed in Escherichia coli BL21(DE3) using [3H]cGMP or [3H]cAMP as substrate after 15 mins by liquid scintillation counting method
Rattus norvegicus [26] = assay: Toxicity in Sprague-Dawley rat assessed as overt toxicity up to 300 mg/kg, po daily for 2 weeks; type: organism-based; conditions: in vivo, 336 h
Mus musculus [27] = assay: Acute toxicity in Kunming mouse assessed as effect on food consumption at 1000 to 1500 mg/kg, po administered as single dose measured up to 2 weeks post dose; type: organism-based; conditions: in vivo, 336 h
[28] = target: 3',5'-cyclic-AMP phosphodiesterase 4D (Homo sapiens, UniProt Q08499); assay: Inhibition of PDE4D2 (86 to 413 residues) (unknown origin) expressed in Escherichia coli BL21(DE3) using [3H]cAMP or [3H]cGMP as substrate after 15 mins by liquid scintillation counting method
[29] = AUC (0 to t) in Sprague-Dawley rat at […], iv by LC-MS/MS analysis; type: ADME, organism-based; conditions: in vivo
[30] = Cmax in Sprague-Dawley rat at 5 mg/kg, po by LC-MS/MS analysis; type: ADME, organism-based; parameters: dose 5 mg/kg, route oral; conditions: in vivo
Rattus norvegicus [31] = assay: Reduction in MCT-induced increase in mean pulmonary arterial pressure in Wistar rat model of monocrotaline pulmonary arterial hypertension assessed as mean pulmonary arterial pressure at 5 mg/kg, po for 3 weeks (reference value: 32.74 mmHg); type: functional
Rattus norvegicus [32] = assay: Inhibition of hypertrophic response in Wistar rat model of monocrotaline pulmonary arterial hypertension assessed as reduction of MCT-induced increase in small pulmonary artery wall thickness at 5 mg/kg, po for 3 weeks; type: functional, organism-based
[33] = Half life in Sprague-Dawley rat at 5 mg/kg, po by LC-MS/MS analysis; type: ADME, organism-based; conditions: in vivo
Liver [34] = assay: Drug metabolism in rat liver microsomes assessed as metabolic rate; type: ADME, microsome
[35] = AUC (0 to infinity) in Sprague-Dawley rat at […], iv by LC-MS/MS analysis; type: ADME, organism-based; parameters: dose 2.5 mg/kg, time infinity, route intravenous; conditions: in vivo

Chain of 3',5'-cyclic-AMP phosphodiesterase 4D (Q08499 whole entry, the tested form may be a part): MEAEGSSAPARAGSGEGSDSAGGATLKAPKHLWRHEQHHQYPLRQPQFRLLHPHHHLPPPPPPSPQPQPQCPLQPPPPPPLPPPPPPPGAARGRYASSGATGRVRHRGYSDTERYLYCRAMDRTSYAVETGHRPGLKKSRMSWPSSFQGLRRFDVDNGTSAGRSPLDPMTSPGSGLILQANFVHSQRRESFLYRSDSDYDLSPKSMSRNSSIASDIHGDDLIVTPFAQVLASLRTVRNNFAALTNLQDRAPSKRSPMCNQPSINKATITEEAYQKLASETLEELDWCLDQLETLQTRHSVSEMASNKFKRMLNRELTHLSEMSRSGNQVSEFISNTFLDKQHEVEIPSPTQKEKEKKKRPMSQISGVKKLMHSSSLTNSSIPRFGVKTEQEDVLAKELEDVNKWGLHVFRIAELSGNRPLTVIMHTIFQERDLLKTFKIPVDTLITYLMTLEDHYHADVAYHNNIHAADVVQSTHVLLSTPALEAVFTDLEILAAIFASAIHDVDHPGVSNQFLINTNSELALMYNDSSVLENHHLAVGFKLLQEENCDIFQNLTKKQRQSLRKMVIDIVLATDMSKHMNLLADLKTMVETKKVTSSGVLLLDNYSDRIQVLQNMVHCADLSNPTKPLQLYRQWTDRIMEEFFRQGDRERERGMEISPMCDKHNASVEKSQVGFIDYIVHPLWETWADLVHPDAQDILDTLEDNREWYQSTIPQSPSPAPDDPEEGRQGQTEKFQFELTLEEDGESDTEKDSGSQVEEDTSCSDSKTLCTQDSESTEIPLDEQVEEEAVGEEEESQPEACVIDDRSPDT
Chain of Cytochrome P450 2C9 (P11712 whole entry): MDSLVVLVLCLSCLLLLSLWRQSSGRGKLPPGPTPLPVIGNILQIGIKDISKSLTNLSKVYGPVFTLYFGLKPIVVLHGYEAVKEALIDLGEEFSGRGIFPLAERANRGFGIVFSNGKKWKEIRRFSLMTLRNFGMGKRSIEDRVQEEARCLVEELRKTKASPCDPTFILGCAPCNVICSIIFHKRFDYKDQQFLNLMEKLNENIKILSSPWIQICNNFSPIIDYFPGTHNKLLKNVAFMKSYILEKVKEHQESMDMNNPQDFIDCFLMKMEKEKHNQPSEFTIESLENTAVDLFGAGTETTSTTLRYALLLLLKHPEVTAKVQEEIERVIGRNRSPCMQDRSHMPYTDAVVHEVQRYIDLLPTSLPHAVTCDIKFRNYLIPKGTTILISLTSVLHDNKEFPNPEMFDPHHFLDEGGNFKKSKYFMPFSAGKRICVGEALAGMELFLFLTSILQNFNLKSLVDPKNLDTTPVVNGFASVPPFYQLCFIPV
Chain of cGMP-inhibited 3',5'-cyclic phosphodiesterase 3A (Q14432 whole entry, the tested form may be a part): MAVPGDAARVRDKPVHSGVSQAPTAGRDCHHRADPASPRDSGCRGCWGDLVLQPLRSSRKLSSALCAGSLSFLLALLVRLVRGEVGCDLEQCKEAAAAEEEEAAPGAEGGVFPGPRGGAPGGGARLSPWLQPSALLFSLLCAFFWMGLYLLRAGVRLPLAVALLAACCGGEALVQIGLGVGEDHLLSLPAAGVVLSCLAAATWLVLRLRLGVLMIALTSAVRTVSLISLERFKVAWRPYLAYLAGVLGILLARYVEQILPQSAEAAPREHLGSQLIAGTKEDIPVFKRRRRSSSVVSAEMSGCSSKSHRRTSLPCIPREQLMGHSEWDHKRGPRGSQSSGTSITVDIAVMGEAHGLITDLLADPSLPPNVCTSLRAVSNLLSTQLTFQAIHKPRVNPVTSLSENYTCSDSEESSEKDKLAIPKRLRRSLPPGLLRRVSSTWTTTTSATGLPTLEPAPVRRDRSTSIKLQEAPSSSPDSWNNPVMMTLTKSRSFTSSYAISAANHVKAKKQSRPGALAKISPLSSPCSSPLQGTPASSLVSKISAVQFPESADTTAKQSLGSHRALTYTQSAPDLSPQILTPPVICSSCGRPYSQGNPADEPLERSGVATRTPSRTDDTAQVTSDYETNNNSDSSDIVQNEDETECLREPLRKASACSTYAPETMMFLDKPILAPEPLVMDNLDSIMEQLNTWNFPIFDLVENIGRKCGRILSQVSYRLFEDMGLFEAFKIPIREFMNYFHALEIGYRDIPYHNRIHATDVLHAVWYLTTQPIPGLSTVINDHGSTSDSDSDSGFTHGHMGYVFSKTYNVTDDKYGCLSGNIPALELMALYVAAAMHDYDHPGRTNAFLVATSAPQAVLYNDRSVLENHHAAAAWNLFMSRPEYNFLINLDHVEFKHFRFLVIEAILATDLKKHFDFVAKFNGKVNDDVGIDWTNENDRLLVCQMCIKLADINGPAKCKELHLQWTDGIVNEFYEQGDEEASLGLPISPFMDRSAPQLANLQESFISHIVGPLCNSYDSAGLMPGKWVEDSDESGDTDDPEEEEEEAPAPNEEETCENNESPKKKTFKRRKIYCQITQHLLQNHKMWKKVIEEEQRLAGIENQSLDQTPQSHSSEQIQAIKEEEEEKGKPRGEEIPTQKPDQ
Chain of Cytochrome P450 2C19 (P33261 whole entry): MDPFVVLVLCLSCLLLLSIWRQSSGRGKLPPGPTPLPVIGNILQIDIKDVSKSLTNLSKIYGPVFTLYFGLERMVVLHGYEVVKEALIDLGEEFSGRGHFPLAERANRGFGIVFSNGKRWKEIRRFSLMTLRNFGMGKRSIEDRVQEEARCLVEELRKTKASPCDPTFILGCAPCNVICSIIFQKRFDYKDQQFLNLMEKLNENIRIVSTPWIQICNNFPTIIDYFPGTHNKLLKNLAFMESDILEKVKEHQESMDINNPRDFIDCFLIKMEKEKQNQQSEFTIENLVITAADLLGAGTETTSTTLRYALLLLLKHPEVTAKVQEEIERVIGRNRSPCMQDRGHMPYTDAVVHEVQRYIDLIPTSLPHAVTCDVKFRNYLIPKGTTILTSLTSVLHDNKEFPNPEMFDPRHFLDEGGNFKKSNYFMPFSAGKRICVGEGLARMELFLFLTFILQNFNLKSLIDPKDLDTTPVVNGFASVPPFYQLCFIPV
Chain of High affinity cAMP-specific and IBMX-insensitive 3',5'-cyclic phosphodiesterase 8A (O60658 whole entry, the tested form may be a part): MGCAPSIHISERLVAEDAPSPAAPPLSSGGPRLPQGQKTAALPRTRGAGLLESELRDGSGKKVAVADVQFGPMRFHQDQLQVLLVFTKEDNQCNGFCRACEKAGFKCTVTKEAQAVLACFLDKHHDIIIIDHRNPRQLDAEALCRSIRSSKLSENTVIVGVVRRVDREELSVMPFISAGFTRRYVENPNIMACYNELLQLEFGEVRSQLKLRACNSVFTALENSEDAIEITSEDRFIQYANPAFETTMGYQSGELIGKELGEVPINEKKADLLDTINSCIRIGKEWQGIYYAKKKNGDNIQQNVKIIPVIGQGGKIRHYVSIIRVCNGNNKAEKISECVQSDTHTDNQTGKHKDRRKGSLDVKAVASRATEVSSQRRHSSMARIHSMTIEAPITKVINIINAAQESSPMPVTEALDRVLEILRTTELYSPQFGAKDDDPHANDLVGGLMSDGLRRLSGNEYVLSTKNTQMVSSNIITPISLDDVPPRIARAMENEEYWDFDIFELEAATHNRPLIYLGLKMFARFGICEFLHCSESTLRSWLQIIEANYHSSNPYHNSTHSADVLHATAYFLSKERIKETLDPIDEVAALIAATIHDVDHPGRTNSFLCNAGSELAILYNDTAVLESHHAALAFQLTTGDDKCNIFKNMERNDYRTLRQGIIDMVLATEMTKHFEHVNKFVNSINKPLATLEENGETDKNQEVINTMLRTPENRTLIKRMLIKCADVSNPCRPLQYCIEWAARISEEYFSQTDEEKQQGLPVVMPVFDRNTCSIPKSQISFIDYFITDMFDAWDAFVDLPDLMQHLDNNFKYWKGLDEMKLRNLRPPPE
Chain of cGMP-dependent 3',5'-cyclic phosphodiesterase (O00408 whole entry, the tested form may be a part): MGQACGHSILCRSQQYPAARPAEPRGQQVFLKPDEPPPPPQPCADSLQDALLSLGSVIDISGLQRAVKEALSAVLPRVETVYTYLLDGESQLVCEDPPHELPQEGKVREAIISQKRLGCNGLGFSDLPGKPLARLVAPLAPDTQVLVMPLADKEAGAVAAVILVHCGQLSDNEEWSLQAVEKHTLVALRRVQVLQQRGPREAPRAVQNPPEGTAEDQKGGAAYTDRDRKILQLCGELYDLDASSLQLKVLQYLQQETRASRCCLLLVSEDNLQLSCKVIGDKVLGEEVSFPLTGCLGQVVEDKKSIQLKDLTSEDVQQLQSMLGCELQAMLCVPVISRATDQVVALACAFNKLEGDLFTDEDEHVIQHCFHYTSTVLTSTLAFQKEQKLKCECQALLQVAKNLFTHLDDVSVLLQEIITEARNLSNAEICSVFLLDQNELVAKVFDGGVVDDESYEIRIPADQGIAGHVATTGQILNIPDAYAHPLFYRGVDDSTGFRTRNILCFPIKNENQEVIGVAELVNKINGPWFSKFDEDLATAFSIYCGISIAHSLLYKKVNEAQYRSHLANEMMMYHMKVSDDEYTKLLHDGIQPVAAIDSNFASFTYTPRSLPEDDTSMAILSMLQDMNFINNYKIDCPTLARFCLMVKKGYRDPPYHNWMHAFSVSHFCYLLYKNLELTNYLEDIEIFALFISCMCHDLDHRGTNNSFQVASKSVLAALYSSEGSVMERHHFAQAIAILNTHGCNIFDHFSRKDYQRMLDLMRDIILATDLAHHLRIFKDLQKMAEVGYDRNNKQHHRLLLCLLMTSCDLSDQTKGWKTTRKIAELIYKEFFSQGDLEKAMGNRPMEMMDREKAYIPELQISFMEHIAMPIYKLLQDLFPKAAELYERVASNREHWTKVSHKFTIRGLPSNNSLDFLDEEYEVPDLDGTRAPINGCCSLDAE

In the case of O=c1c2ccccc2oc2c(Cc3ccc4c(c3)OCO4)[nH]c(-c3nccs3)c12, the IC50 [1] is reported as over 10 µM, the IC50 [2] is reported as 0.153 µM and the Activity (Mus musculus [3]) is reported as “Non-Toxic”. For the same compound, the IC50 [4] was over 10 µM, the Activity (Rattus norvegicus [5]) was “Active” and the half-life at 0.5 µM [6] was 0.933 h. The IC50 [7] was 0.362 µM, the IC50 [8] was 6.22 µM and the half-life [9] was 6.02 h. The CLint scaled at 0.5 µM [10] was 101 mL/min/kg, the AUC(0-inf) [11] was 2030 ng·h/mL and the Tmax [12] was 4 h. For the same compound, the Activity (Mus musculus [13]) was “Non-Toxic”, the IC50 [14] was over 10 µM and the MRT last [15] was 2.14 h. The CLH (Liver [16]) was 24.8 µL/min/mg, the IC50 [17] was over 10 µM and the half-life at 0.5 µM [18] was 0.412 h. The Activity (Mus musculus [19]) was “Non-Toxic”, the CLint scaled at 0.5 µM [20] was 23.9 mL/min/kg and the IC50 (Cytochrome P450 2C9) was over 25 µM. The IC50 (Cytochrome P450 2C19) was over 20 µM, the MTD at 336 h [21] was over 1500 mg/kg and the K (Liver [22]) was 0.0124. The AUC(0-t) [23] was 2000 ng·h/mL, the bioavailability [24] was 63.4% and the IC50 [25] was 0.058 µM. For the same compound, the Activity (Rattus norvegicus [26]) was “Non-Toxic”, the Activity (Mus musculus [27]) was “Non-Toxic” and the IC50 [28] was 2.77 µM. The AUC(0-t) [29] was 1700 ng·h/mL, the Cmax [30] was 368 ng/mL and the Activity (Rattus norvegicus [31]) was 18.65 mmHg. For the same compound, the inhibition (Rattus norvegicus [32]) was “Active”, the half-life [33] was 5.17 h and the K (Liver [34]) was 0.0281. It also gave an AUC(0-inf) [35] of 1730 ng·h/mL.
